{
  "source": "ChEMBL document CHEMBL3832082",
  "about": "“DailyMed|setid=a9a12198-b016-42ae-b9dc-d98fead7b79e | CARVEDILOL- carvedilol tablet, film coated|REMEDYREPACK INC”",
  "key": {"Homo sapiens": {"tested_on": "Homo sapiens", "test": "(§1) Pharmacokinetic parameters for Carvedilol following oral administration of Carvedilol tablets.", "format": "ADME, organism-based", "settings": "in vivo, po, dosed compound id 39, dosed compound name CARVEDILOL, tissue Plasma"}, "[1]": {"test": "as §1", "format": "ADME, organism-based", "settings": "human, in vivo, dosed compound id 39, dosed compound name CARVEDILOL, tissue Plasma"}},
  "data": [
    {"smiles": "COc1ccccc1OCCNCC(O)COc1cccc2[nH]c3ccccc3c12", "note": "(stereo not given) [CARVEDILOL]", "values": [
      {"measurement": "t1/2(app)", "setting": "Homo sapiens; gender male and female", "result": "7 to 11", "unit": "h"},
      {"measurement": "Vss", "setting": "Homo sapiens", "result": 115, "unit": "L"},
      {"measurement": "half-life", "setting": "[1]; gender male and female, read-out: t1/2(app)", "result": "5 to 9", "unit": "h"},
      {"measurement": "CL/F", "setting": "[1]", "result": "500 to 700", "unit": "mL/min"},
      {"measurement": "bioavailability", "setting": "[1]", "result": "25 to 35", "unit": "%"}
    ]}
  ]
}
